Columns and labels:
[1] = Dehydration/desolvation under vacuum, XRPD; format: physicochemical
From the text: The characterization of this weight loss as THF solvent is supported by the ^1H NMR data.

[2] = XRPD after storage in a closed vial at ambient conditions; format: physicochemical; conditions: 31 days
[3] = Moisture sorption/desorption (VTI SGA-100 moisture balance); format: physicochemical; conditions: for hygroscopicity: from moisture sorption data, 5 to 95% RH; for Weight % chg: start, elapsed time 0.0 min, 25 deg C (RH 14.41% Form A, 9.87% Form B)
From the text: The samples were not dried prior to analysis.

Grinding of Form A, XRPD = format: physicochemical; conditions: ground in an amalgamator for 10 minutes
From the text: The XRPD data for the increased amorphous content material obtained by grinding a crystalline polymorph are plotted in FIG. 29. […] Further grinding is expected to increase the amorphous content and further broaden the XRPD pattern with the limit of the XRPD pattern being so broadened that it cannot be discerned above noise. When the XRPD pattern is broadened to the limit of being indiscernable, the material is no longer a crystalline material having increased amorphous content relative to unground crystallized material, but is a material that is wholly amorphous as defined herein.
The sample was then analyzed using XRPD.

human tumor xenografts = conditions: cited from earlier work
[4] = cited from earlier work

CC[C@@]1(O)C(=O)OCc2c1cc1n(c2=O)Cc2cc3c([N+](=O)[O-])cccc3nc2-1 [Form C, 9-nitrocamptothecin]
form after attempt to desolvate under vacuum [1]: becomes amorphous

CC[C@@]1(O)C(=O)OCc2c1cc1n(c2=O)Cc2cc3c([N+](=O)[O-])cccc3nc2-1 [Form B, 9-nitrocamptothecin]
stability of the crystalline form (XRPD pattern vs FIG. 5) [2]: relatively stable
hysteresis between the hydration and dehydration curves [3]: essentially no hysterisis
hygroscopicity [3]: relatively hygroscopic
Weight % chg [3]: 0.0000%

CC[C@@]1(O)C(=O)OCc2c1cc1n(c2=O)Cc2cc3c([N+](=O)[O-])cccc3nc2-1 [Form A, 9-nitrocamptothecin]
hysteresis between the hydration and dehydration curves [3]: A small amount of hysteresis
hygroscopicity [3]: not hygroscopic
Weight % chg [3]: 0.0000%
effect of grinding on crystallinity (XRPD) (Grinding of Form A, XRPD): losing crystallinity after grinding

CC[C@@]1(O)C(=O)OCc2c1cc1n(c2=O)Cc2cc3c([N+](=O)[O-])cccc3nc2-1 [9-nitrocamptothecin, 9-nitro-20(S)-camptothecin]
growth of human tumor xenografts (human tumor xenografts; immunodeficient nude mice): inhibited the growth of human tumor xenografts
regression of established human tumor xenografts (human tumor xenografts; nude mice): induced regression of human tumors

CC[C@@](O)(C(=O)[O-])c1cc2n(c(=O)c1CO)Cc1cc3ccccc3nc1-2.[Na+] [Sodium camptothecin]
side effects in clinical trials ([4]; administered intravenously): unpredictable side effects such as myelosuppression and hemorrhagic cystitis
activity in clinical trials ([4]; solubilized by sodium hydroxide in water, intravenous): found to have antineoplastic activity

Reference: patent US7071202B2 (SuperGen, Inc., priority 2002, dated 2006)
